# How the values were obtained:
# [1] = molecular target: T1, recombinant human PD-1 protein (Homo sapiens, UniProt Q15116); assay: SPR determination of binding constants between saponin natural products and PD-1 protein; details: PD-1 coupled to CM7 chip, steady-state fitting, read-out: Binding affinity KD
# T1 construct: amino acids 34-150 of human PD-1; made in house; host or cells: E. coli BL21 (DE3), pET-28a
# Protocol: Surface plasmon resonance (SPR) was used to determine the binding affinity between natural products and PD-1 protein. Specific experimental steps are as follows: Firstly, the purified protein was exchanged into 50 mM Hepes, pH 8.0, 250 mM NaCl, 1 mM DTT buffer, and diluted to 50 μg/ml with sodium acetate pH 4.5. The protein was coupled to CM7 chip with a coupling kit for 600 s at a flow rate of 10 μl/min. The final coupling amount was about 13000 RU. After the coupling was completed, the CM7 chip was equilibrated to a stable state in a buffer solution (1.05×PBS, 0.05% P20). […] The final data was analyzed by BIAevaluation2.0 software, and KD values were obtained by steady-state fitting.
# [2] = molecular target: T2, human PD-1 binding to human PD-L1 (Homo sapiens, UniProt Q15116); assay: SPR competition of compounds with PD-L1 protein for binding PD-1; details: PD-L1 on CM5 chip, compound pre-incubated with 3 μM PD-1 protein
# T2 construct: amino acids 34-150 of human PD-1; made in house; PD-L1: purchased from Beijing Yiqiao Shenzhou Biotechnology Co., Ltd., no catalogue number
# T2 sequence (Q15116 34-150): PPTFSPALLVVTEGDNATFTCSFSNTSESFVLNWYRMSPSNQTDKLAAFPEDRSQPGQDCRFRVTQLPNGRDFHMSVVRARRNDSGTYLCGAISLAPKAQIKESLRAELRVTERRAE
# Protocol: Based on the results in the above examples, the present inventors investigated whether the compound can competite with PD-L1 for binding PD-1, and thus block PD-1 from binding PD-L1. PD-L1 protein was purchased from Beijing Yiqiao Shenzhou Biotechnology Co., Ltd. Specific experimental steps are as follows: 50 μg/ml PD-L1 protein was coupled to CM5 chip by amino coupling method. The coupling amount was about 3780 RU. Compounds of different concentrations were incubated with 3 μM PD-1 protein on ice for 30 min, and flowed across the surface of the chip along with the running buffer (1.05×PBS, 0.05% P20, 1% DMSO) at a flow rate of 30 μL/min, for binding time of 90 s and dissociation time of 120 s. PD-1 protein bound to PD-L1 protein on the chip decreases as the concentration of the compound increases, therefore, the response value decreases. The results of this experiment indicate that compounds can block PD-1 from binding PD-L1.
# [3] = tested on: Jurkat T cells; assay: Detection of IL-2 secretion in T cells by ELISA (BxPC-3 / Jurkat T co-culture); type: cell-based; details: for Increase of the amount of IL-2 produced by Jurkat T cells: 50 μM compound, BxPC-3 tumor cells and Jurkat T cells co-cultured 3:1, 48 h, ELISA; for Restoration of the ability of depleted Jurkat T cells to secrete IL-2: FIG. 5 legend, result in words
# Protocol: The inventors selected several compounds for the evaluation experiment of cell function. We co-cultured stimulated BxPC-3 tumor cells and activated Jurkat T cells in a 96-well plate at a ratio of 3:1. Jurkat T cells were cultured alone as a negative control. 50 μM of compound was added into the experimental group, and a D-hank's solution with the same DMSO content was used as a negative control. Each group was incubated in a carbon dioxide cell incubator for 48 h. The supernatant medium was collected and detected for the amount of IL-2 by an ELISA kit. Experiments were performed in triplicate. After tumor cells were co-cultured with T cells, the amount of IL-2 produced by the T cells was suppressed by about 55%. After 50 μM of compound 6 was added, the amount of IL-2 produced by Jurkat T cells can be increased by about 30%; after 50 μM of compound 8 was added, the amount of IL-2 produced by Jurkat T cells can be increased by about 1^7%; after 50 μM of compound 10 was added, the amount of IL-2 produced by Jurkat T cells can be increased by about 30%; after 50 μM of compound 11 was added, the amount of IL-2 produced by Jurkat T cells can be increased by about 12%; and after 50 μM of compound 13 was added, the amount of IL-2 produced by Jurkat T cells can be increased by about 23%. Such effects can be achieved in three repeated experiments. The results of this experiment indicate that the compounds can, to a certain extent, restore the function of T cells.
# T1 sequence (Q15116 34-150): as above
Compound,Kd [1] [nM],Blocking of human PD-1 binding to human PD-L1 [2],Increase of the amount of IL-2 produced by Jurkat T cells [3],Restoration of the ability of depleted Jurkat T cells to secrete IL-2 [3]
CC1(C)CC[C@]2(C(=O)O[C@@H]3O[C@H](CO)[C@@H](O)[C@H](O)[C@H]3O)CC[C@]3(C)C(=CC[C@@H]4[C@@]5(C)CC[C@H](OC6O[C@H](C(=O)O)[C@@H](O)[C@H](O)[C@H]6OC6O[C@H](CO)[C@@H](O)[C@H](O)[C@H]6O)C(C)(C)[C@@H]5CC[C@]43C)[C@@H]2C1 (stereo partly drawn) [Compound 1],2230,can block human PD-1 from binding to human PD-L1,–,–
C[C@@H]1CC[C@]2(C(=O)O)CC[C@]3(C)C(=CC[C@@H]4[C@@]5(C)CC[C@H](O[C@@H]6OC[C@H](O)[C@H](O)[C@H]6O)C(C)(C)[C@@H]5CC[C@]43C)[C@@H]2[C@]1(C)O [Compound 2],440,can block human PD-1 from binding to human PD-L1,–,–
C[C@@H]1OC(O[C@H]2C(O[C@H]3CC[C@@]4(C)C(CC[C@]5(C)C4CC=C4C6CC(C)(C)CC[C@]6(C(=O)O)CC[C@]45C)[C@]3(C)CO)OC[C@H](OC3O[C@H](CO)[C@@H](O)[C@H](O)[C@H]3O)[C@@H]2O)[C@H](O)[C@H](O)[C@H]1O (stereo partly drawn) [Compound 3],2100,–,–,–
CC1(C)CC[C@]2(C(=O)O[C@@H]3O[C@H](CO)[C@@H](O)[C@H](O)[C@H]3O)CC[C@]3(C)C(=CCC4[C@@]5(C)CCC(OC6O[C@H](C(=O)O)[C@@H](O)[C@H](O)[C@H]6O)C(C)(C)C5CC[C@]43C)[C@H]2C1 (stereo partly drawn) [Compound 4],560,can block human PD-1 from binding to human PD-L1,–,–
CC1(C)CC[C@]2(C(=O)O)CC[C@]3(C)C(=CC[C@@H]4[C@@]5(C)CC[C@H](O)[C@@](C)(CO)[C@@H]5CC[C@]43C)[C@@H]2C1 [Compound 5],5360,can block human PD-1 from binding to human PD-L1,–,–
CC1(C)CC[C@]2(C(=O)O)CC[C@]3(C)C(=CC[C@@H]4[C@@]5(C)CC[C@H](O[C@@H]6O[C@H](C(=O)O)[C@@H](O)[C@H](O[C@@H]7OC[C@@H](O)[C@H](O)[C@H]7O)[C@H]6O)C(C)(C)[C@@H]5CC[C@]43C)[C@@H]2C1 [Compound 6],40,can block human PD-1 from binding to human PD-L1,about 30%,can restore the ability of depleted Jurkat T cells to secrete IL-2
C[C@@H]1O[C@@H](O[C@H]2[C@H](O[C@H]3[C@H](O[C@H]4CC[C@@]5(C)[C@@H](CC[C@]6(C)[C@@H]5CC=C5[C@@H]7CC(C)(C)C[C@@H](O)[C@]7(C)CC[C@]56C)[C@@]4(C)CO)O[C@H](C(=O)O)[C@@H](O)[C@@H]3O)O[C@H](CO)[C@H](O)[C@@H]2O)[C@H](O)[C@H](O)[C@H]1O [Compound 7],2190,can block human PD-1 from binding to human PD-L1,–,–
C[C@@H]1CC[C@@]2(C(=O)O)CC[C@]3(C)C(=CCC4[C@@]5(C)C[C@@H](O)[C@H](O)C(C)(C)C5CC[C@]43C)C2[C@H]1C (stereo partly drawn) [Compound 8],5020,can block human PD-1 from binding to human PD-L1,–,can restore the ability of depleted Jurkat T cells to secrete IL-2
C[C@@H]1CC[C@]2(C(=O)O)CC[C@]3(C)C(=CCC4[C@@]5(C)CC[C@H](O)C(C)(C)C5CC[C@]43C)C2[C@H]1C (stereo partly drawn) [Compound 9],4920,can block human PD-1 from binding to human PD-L1,–,–
CC1(C)CC[C@]2(C(=O)O)CC[C@]3(C)C(=CCC4[C@@]5(C)CC[C@H](O)C(C)(C)C5CC[C@]43C)C2C1 (stereo partly drawn) [Compound 10],2710,can block human PD-1 from binding to human PD-L1,about 30%,can restore the ability of depleted Jurkat T cells to secrete IL-2
C[C@H]1[C@H](C)CC[C@]2(C(=O)O)CC[C@]3(C)C(=CC[C@@H]4[C@@]5(C)C[C@@H](O)[C@H](O)C(C)(C)[C@@H]5CC[C@]43C)[C@H]12 [Compound 11],1400,can block human PD-1 from binding to human PD-L1,about 12%,can restore the ability of depleted Jurkat T cells to secrete IL-2
CC1(C)CCC2(C(=O)O)CC[C@]3(C)C(=CCC4[C@@]5(C)C[C@@H](O)[C@H](O)C(C)(C)C5CC[C@]43C)C2C1 (stereo partly drawn) [Compound 12],–,can block human PD-1 from binding to human PD-L1,–,–
C[C@H]1[C@H](C)CC[C@]2(C(=O)O)CC[C@]3(C)C(=CC[C@@H]4[C@@]5(C)C[C@@H](O)[C@@H](O)C(C)(C)[C@@H]5CC[C@]43C)[C@H]12 [Compound 13],1770,can block human PD-1 from binding to human PD-L1,about 23%,can restore the ability of depleted Jurkat T cells to secrete IL-2

# Reference: patent US11464795B2, “Saponin compound targeting PD-1 and application thereof” (EAST CHINA UNIVERSITY OF SCIENCE AND TECHNOLOGY, priority 2017, dated 2022)
